Data published in ChEMBL document CHEMBL4196025 (Eur J Med Chem, 2018).
Activity calls are given as the source filed them. The calls are words filed in the database; no cut-off is given here.

How the values were obtained:
Cholinesterase [1] = target: Cholinesterase (Equus caballus, UniProt P81908)
Description: Inhibition of equine serum BCHE using butyrylthiocholine iodide as substrate preincubated for 5 mins followed by DTNB addition for 5 mins and subsequent addition of substrate measured after 3 mins by Ellman's method

Acetylcholinesterase [2] = target: Acetylcholinesterase (Electrophorus electricus, UniProt O42275); experiment: Inhibition of electric eel AChE using acetylthiocholine iodide as substrate preincubated for 5 mins followed by DTNB addition for 5 mins and subsequent addition of substrate measured after 3 mins by Ellman's method
[3] = target: Amyloid-beta precursor protein (Homo sapiens) (UniProt P05067); experiment: Inhibition of self-induced amyloid beta (1 to 42) (unknown origin) aggregation up to 100 uM measured after 24 hrs by ThT fluorescence assay
PC-12 [4] = experiment: Protection against CoCl2-induced damage in rat PC12 cells assessed as cell viability at 5 uM preincubated for 36 hrs followed by CoCl2 addition measured after 12 hrs by MTT assay (reference value: 51.2%); assay type: functional; conditions: read-out: Activity
PC-12 [5] = experiment: Protection against CoCl2-induced damage in rat PC12 cells assessed as cell viability at 2.5 uM preincubated for 36 hrs followed by CoCl2 addition measured after 12 hrs by MTT assay (reference value: 51.2%); assay type: functional; conditions: read-out: Activity
Acetylcholinesterase [6] = target: T1, Acetylcholinesterase (Homo sapiens, UniProt P22303); experiment: Inhibition of human erythrocyte AChE using acetylthiocholine iodide as substrate preincubated for 5 mins followed by DTNB addition for 5 mins and subsequent addition of substrate measured after 3 mins by Ellman's method
Cholinesterase [7] = target: Cholinesterase (Homo sapiens, UniProt P06276); experiment: Inhibition of human serum BCHE using butyrylthiocholine iodide as substrate preincubated for 5 mins followed by DTNB addition for 5 mins and subsequent addition of substrate measured after 3 mins by Ellman's method
PC-12 [8] = experiment: Protection against CoCl2-induced damage in rat PC12 cells assessed as cell viability at 10 uM preincubated for 36 hrs followed by CoCl2 addition measured after 12 hrs by MTT assay (reference value: 51.2%); assay type: functional; conditions: read-out: Activity
in vitro [9] = conditions: human, HepG2 cells
Description: Cytotoxicity against human HepG2 cells assessed as cell viability at 2.5 uM after 24 hrs by MTT assay relative to control

[10] = target: Amyloid-beta precursor protein (Homo sapiens) (UniProt P05067); experiment: Inhibition of self-induced amyloid beta (1 to 42) (unknown origin) aggregation measured after 24 hrs by ThT fluorescence assay
[11] = target: Amyloid-beta precursor protein (Homo sapiens) (UniProt P05067); experiment: Inhibition of self-induced amyloid beta (1 to 42) (unknown origin) aggregation at 100 uM measured after 24 hrs by ThT fluorescence assay relative to control
Acetylcholinesterase [12] = target: T1, Acetylcholinesterase; experiment: Mixed-type inhibition of human erythrocyte AChE at 2.5 to 10 nM using varying levels of acetylthiocholine iodide as substrate by Lineweaver-Burk plot analysis
[13] = Cytotoxicity against NGF-differentiated rat PC12 cells assessed as cell viability at 10 uM after 48 hrs by MTT assay relative to control; assay type: cell-based, PC-12; conditions: read-out: Activity
[14] = target: Amyloid-beta precursor protein (Homo sapiens) (UniProt P05067); experiment: Inhibition of self-induced amyloid beta (1 to 42) (unknown origin) aggregation at 20 uM measured after 24 hrs by ThT fluorescence assay relative to control
in vitro [15] = conditions: human, HepG2 cells; remark: listed apart in the source
Description: Cytotoxicity against human HepG2 cells assessed as cell viability at 1.25 uM after 24 hrs by MTT assay relative to control

Acetylcholinesterase [16] = target: T1, Acetylcholinesterase; experiment: Potency index, ratio of tacrine IC50 to compound IC50 for inhibition of human erythrocyte AChE
PC-12 [17] = experiment: Protection against CoCl2-induced damage in rat PC12 cells assessed as increase in cell viability preincubated for 36 hrs followed by CoCl2 addition measured after 12 hrs by MTT assay; assay type: functional, cell-based
[18] = target: Acetylcholinesterase (Electrophorus electricus) (UniProt O42275); experiment: Mixed-type inhibition of electric eel AChE at 2.5 to 10 nM using varying levels of acetylthiocholine iodide as substrate by Lineweaver-Burk plot analysis
in vitro [19] = conditions: human, HepG2 cells; remark: listed apart in the source
Description: Cytotoxicity against human HepG2 cells assessed as cell viability at 10 uM after 24 hrs by MTT assay relative to control

in vitro [20] = conditions: human, HepG2 cells; remark: listed apart in the source
Description: Cytotoxicity against human HepG2 cells assessed as cell viability at 5 uM after 24 hrs by MTT assay relative to control

T1 sequence (P22303 whole entry): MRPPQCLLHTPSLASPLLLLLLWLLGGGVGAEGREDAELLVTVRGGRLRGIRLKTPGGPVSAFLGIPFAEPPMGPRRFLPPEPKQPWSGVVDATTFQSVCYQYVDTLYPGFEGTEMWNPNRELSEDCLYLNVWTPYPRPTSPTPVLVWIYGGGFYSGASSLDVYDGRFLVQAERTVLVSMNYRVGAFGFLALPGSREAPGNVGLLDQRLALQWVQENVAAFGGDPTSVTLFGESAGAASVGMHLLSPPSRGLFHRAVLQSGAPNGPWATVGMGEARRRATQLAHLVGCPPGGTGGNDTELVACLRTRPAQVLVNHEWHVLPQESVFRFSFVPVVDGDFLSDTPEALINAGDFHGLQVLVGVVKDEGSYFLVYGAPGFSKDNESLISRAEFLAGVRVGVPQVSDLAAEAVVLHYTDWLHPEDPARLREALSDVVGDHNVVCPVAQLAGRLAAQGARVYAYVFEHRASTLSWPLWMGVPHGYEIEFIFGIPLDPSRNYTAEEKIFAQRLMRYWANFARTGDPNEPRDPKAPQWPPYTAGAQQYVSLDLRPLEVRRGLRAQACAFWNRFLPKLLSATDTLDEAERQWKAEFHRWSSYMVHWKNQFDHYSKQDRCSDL
Chain of Acetylcholinesterase (Electrophorus electricus, UniProt O42275) (O42275 whole entry): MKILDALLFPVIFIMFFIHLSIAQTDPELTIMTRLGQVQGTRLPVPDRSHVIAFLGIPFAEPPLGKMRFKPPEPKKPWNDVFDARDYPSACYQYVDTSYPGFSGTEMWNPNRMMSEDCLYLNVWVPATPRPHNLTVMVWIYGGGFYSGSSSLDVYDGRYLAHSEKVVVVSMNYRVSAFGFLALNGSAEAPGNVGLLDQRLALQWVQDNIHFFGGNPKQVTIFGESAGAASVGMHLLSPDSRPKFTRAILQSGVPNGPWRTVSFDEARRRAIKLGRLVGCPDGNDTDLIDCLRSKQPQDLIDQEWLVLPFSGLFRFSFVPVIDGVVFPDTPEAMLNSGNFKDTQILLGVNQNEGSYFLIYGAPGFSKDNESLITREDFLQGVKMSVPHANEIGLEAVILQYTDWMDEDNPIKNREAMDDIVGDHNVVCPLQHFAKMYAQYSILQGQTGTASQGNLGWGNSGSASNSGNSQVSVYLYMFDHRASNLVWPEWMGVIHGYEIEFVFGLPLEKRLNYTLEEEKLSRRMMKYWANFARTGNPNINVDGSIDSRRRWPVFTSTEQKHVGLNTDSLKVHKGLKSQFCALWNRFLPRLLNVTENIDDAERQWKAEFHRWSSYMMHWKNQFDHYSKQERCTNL
Chain of Cholinesterase (Equus caballus, UniProt P81908) (P81908 whole entry): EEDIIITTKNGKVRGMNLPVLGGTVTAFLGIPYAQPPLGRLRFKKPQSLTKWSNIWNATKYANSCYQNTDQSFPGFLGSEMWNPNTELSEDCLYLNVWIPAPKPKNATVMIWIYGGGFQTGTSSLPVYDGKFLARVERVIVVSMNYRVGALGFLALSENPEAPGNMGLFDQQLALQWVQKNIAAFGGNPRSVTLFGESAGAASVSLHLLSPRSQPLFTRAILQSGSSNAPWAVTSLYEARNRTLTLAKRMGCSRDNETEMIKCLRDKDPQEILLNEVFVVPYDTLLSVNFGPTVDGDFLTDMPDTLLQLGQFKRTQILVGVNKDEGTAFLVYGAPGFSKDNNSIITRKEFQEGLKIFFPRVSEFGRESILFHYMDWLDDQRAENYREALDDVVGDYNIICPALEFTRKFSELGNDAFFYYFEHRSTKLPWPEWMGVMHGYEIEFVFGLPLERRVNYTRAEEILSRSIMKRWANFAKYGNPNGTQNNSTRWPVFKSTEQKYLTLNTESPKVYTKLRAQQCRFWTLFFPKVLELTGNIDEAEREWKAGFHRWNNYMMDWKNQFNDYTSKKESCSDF
Chain of Amyloid-beta precursor protein (Homo sapiens) (P05067 whole entry): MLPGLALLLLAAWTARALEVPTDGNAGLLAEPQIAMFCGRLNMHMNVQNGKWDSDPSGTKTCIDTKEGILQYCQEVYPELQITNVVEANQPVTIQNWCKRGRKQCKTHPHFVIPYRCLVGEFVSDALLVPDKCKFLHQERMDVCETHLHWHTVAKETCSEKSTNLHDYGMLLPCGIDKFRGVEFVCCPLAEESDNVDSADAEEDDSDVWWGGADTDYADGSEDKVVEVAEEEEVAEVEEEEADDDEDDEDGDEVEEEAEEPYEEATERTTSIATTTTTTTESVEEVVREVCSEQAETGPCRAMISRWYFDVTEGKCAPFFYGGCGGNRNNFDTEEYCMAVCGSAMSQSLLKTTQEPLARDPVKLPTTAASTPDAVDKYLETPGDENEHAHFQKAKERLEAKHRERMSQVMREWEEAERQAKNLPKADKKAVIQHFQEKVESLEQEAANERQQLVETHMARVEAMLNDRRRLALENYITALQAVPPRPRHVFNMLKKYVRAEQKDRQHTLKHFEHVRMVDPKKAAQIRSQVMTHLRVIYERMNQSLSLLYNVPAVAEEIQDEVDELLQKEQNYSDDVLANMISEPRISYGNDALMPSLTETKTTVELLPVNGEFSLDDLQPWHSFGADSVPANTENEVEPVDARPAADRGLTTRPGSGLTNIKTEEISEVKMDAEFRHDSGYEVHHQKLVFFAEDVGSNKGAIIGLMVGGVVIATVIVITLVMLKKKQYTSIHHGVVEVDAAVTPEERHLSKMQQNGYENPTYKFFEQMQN
Chain of Cholinesterase (Homo sapiens, UniProt P06276) (P06276 whole entry): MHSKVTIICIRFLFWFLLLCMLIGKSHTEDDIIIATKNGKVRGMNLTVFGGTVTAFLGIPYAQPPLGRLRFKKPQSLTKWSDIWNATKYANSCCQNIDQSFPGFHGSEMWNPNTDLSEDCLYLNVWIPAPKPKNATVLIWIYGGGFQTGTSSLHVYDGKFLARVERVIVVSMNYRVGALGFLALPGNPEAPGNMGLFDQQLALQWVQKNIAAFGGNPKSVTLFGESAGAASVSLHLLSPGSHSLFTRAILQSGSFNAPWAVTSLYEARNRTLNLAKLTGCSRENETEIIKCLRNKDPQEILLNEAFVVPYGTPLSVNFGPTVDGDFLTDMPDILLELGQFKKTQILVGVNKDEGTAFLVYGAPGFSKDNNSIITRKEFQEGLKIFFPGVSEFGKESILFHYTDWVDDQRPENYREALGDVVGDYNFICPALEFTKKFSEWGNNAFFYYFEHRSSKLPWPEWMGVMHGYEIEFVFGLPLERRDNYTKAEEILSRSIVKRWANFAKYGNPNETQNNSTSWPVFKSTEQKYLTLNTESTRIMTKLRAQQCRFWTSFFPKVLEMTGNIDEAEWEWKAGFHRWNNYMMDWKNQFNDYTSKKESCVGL
Chain of Acetylcholinesterase (Electrophorus electricus) (O42275 24-633 limits assumed): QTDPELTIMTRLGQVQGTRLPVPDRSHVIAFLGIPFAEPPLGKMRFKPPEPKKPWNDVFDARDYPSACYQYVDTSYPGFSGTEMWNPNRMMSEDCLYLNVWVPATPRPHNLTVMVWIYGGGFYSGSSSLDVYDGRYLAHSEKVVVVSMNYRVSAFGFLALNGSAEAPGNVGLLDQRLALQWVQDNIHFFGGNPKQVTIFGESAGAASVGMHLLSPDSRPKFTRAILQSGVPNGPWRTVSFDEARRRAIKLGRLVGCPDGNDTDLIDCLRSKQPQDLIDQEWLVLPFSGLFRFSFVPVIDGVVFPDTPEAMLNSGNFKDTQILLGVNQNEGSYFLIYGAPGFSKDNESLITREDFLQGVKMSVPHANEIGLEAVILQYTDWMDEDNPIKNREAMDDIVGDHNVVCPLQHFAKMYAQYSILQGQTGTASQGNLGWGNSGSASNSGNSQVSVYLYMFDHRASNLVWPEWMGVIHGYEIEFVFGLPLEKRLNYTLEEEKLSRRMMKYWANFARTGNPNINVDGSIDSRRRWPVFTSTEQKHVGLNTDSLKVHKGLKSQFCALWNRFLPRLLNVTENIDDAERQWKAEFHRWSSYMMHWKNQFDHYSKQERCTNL

SMILES | IC50 (Cholinesterase [1]) [nM] | IC50 (Acetylcholinesterase [2]) [nM] | other results
COc1cc(/C=C/C(=O)NCCCCCCNc2c3c(nc4ccccc24)CCCC3)ccc1OCc1nc(C)c(C)nc1C | 28.3 | 14.7 | 
COc1cc(/C=C/C(=O)NCCCNc2c3c(nc4ccccc24)CCCC3)cc(OC)c1O | 330 | 25.8 | 
Cc1nc(C)c(COc2ccc(CC(O)C(=O)NCCNc3c4c(nc5ccccc35)CCCC4)cc2OCc2nc(C)c(C)nc2C)nc1C (centres undefined) | 816 | > 1000 | 
COc1cc(/C=C/C(=O)NCCCCNc2c3c(nc4ccccc24)CCCC3)cc(OC)c1O | 241 | 64.4 | 
Cc1nc(C)c(COc2ccc(/C=C/C(=O)NCCCNc3c4c(nc5ccccc35)CCCC4)cc2OCc2nc(C)c(C)nc2C)nc1C | 199 | 13.7 | 
COc1cc(/C=C/C(=O)NCCCCCCCCNc2c3c(nc4ccccc24)CCCC3)cc(OC)c1O | 9.3 | 32.5 | 
COc1cc(/C=C/C(=O)NCCCCNc2c3c(nc4ccccc24)CCCC3)cc(OC)c1OCc1nc(C)c(C)nc1C | > 1000 | 179 | 
COc1cc(/C=C/C(=O)NCCCCCCNc2c3c(nc4ccccc24)CCCC3)cc(OC)c1OCc1nc(C)c(C)nc1C | 28.6 | 2.6 | inhibition [3]: inactive; viability at 5 µM (PC-12 [4]): 15%; viability at 2.5 µM (PC-12 [5]): 37.7%; IC50 (Acetylcholinesterase [6]): 108 nM; IC50 (Cholinesterase [7]): 577 nM; viability at 10 µM (PC-12 [8]): 11.2%
Cc1nc(C)c(COc2ccc(/C=C/C(=O)NCCCCCCCCNc3c4c(nc5ccccc35)CCCC4)cc2)nc1C | 228 | 264 | 
O=C(/C=C/c1ccc(O)cc1)NCCCCCCCCNc1c2c(nc3ccccc13)CCCC2 | 278 | 522 | 
Cc1nc(C)c(COc2ccc(CC(O)C(=O)NCCCCCCCCNc3c4c(nc5ccccc35)CCCC4)cc2OCc2nc(C)c(C)nc2C)nc1C (centres undefined) | 3.8 | 65.1 | 
O=C(/C=C/c1ccc(O)cc1)NCCNc1c2c(nc3ccccc13)CCCC2 | 302 | 110 | 
COc1cc(/C=C/C(=O)NCCNc2c3c(nc4ccccc24)CCCC3)cc(OC)c1O | > 1000 | 101 | 
COc1cc(/C=C/C(=O)NCCCCCCCCNc2c3c(nc4ccccc24)CCCC3)cc(OC)c1OCc1nc(C)c(C)nc1C | 16.6 | 145 | 
COc1cc(/C=C/C(=O)NCCCNc2c3c(nc4ccccc24)CCCC3)cc(OC)c1OCc1nc(C)c(C)nc1C | > 1000 | 116 | 
Cc1nc(C)c(COc2ccc(CC(O)C(=O)NCCCNc3c4c(nc5ccccc35)CCCC4)cc2OCc2nc(C)c(C)nc2C)nc1C (centres undefined) | 165 | > 1000 | 
Cc1nc(C)c(COc2ccc(CC(O)C(=O)NCCCCNc3c4c(nc5ccccc35)CCCC4)cc2OCc2nc(C)c(C)nc2C)nc1C (centres undefined) | > 1000 | > 1000 | 
Cc1nc(C)c(COc2ccc(/C=C/C(=O)NCCCCCCNc3c4c(nc5ccccc35)CCCC4)cc2OCc2nc(C)c(C)nc2C)nc1C | 68.1 | 136 | 

SMILES | IC50 (Cholinesterase [1]) [nM] | IC50 (Acetylcholinesterase [2]) [nM] | other results
Cc1nc(C)c(COc2ccc(CC(O)C(=O)NCCCCCCNc3c4c(nc5ccccc35)CCCC4)cc2OCc2nc(C)c(C)nc2C)nc1C (centres undefined) | 1.3 | 270 | 
O=C(/C=C/c1ccc(O)cc1)NCCCNc1c2c(nc3ccccc13)CCCC2 | 43.3 | 128 | 
Cc1nc(C)c(COc2ccc(/C=C/C(=O)NCCCNc3c4c(nc5ccccc35)CCCC4)cc2)nc1C | 5.2 | 205 | 
COc1cc(/C=C/C(=O)NCCNc2c3c(nc4ccccc24)CCCC3)cc(OC)c1OCc1nc(C)c(C)nc1C | 613 | 65.3 | 
COc1cc(/C=C/C(=O)NCCCCNc2c3c(nc4ccccc24)CCCC3)ccc1OCc1nc(C)c(C)nc1C | 32.4 | 188 | 
Cc1nc(C)c(COc2ccc(/C=C/C(=O)NCCCCCCNc3c4c(nc5ccccc35)CCCC4)cc2)nc1C | 147 | 304 | 
Cc1nc(C)c(COc2ccc(/C=C/C(=O)NCCNc3c4c(nc5ccccc35)CCCC4)cc2OCc2nc(C)c(C)nc2C)nc1C | > 1000 | 108 | 
COc1cc(/C=C/C(=O)NCCNc2c3c(nc4ccccc24)CCCC3)ccc1OCc1nc(C)c(C)nc1C | 502 | 33.1 | 
Cc1nc(C)c(COc2ccc(/C=C/C(=O)NCCCCNc3c4c(nc5ccccc35)CCCC4)cc2)nc1C | 2.3 | 334 | 
Cc1nc(C)c(COc2ccc(/C=C/C(=O)NCCCCNc3c4c(nc5ccccc35)CCCC4)cc2OCc2nc(C)c(C)nc2C)nc1C | 111 | 139 | 
Cc1nc(C)c(COc2ccc(/C=C/C(=O)NCCNc3c4c(nc5ccccc35)CCCC4)cc2)nc1C | 589 | 44.9 | 
COc1cc(/C=C/C(=O)NCCCCCCNc2c3c(nc4ccccc24)CCCC3)cc(OC)c1O | 24.3 | 3.9 | viability at 5 µM (PC-12 [4]): 99.5%; viability at 24 h, 2.5 µM (in vitro [9]): 96.3%; viability at 2.5 µM (PC-12 [5]): 92.4%; IC50 (Acetylcholinesterase [6]): 65.2 nM; inhibition [10]: Dose-dependent effect; inhibition [11]: 48%; inhibition (Acetylcholinesterase [12]): Active; viability at 48 h, 10 µM [13]: 131%; inhibition [14]: 47%; viability at 24 h, 1.25 µM (in vitro [15]): 98.4%; Ratio IC50 (Acetylcholinesterase [16]): 2; Activity (PC-12 [17]): Dose-dependent effect; inhibition [18]: Active; IC50 (Cholinesterase [7]): 48.8 nM; viability at 10 µM (PC-12 [8]): 107%; viability at 24 h, 10 µM (in vitro [19]): 81.8%; viability at 24 h, 5 µM (in vitro [20]): 94.9%
O=C(/C=C/c1ccc(O)cc1)NCCCCCCNc1c2c(nc3ccccc13)CCCC2 | 24.1 | 44.6 | 
COc1cc(/C=C/C(=O)NCCCNc2c3c(nc4ccccc24)CCCC3)ccc1OCc1nc(C)c(C)nc1C | 22.6 | 12.2 | 
COc1cc(/C=C/C(=O)NCCCCCCCCNc2c3c(nc4ccccc24)CCCC3)ccc1OCc1nc(C)c(C)nc1C | 174 | 304 | 
Cc1c(C)c2c(c(C)c1O)CCC(C)(C(=O)O)O2 (centres undefined) [TROLOX] |  |  | viability at 10 µM (PC-12 [8]): 101%
Cc1nc(C)c(COc2ccc(/C=C/C(=O)NCCCCCCCCNc3c4c(nc5ccccc35)CCCC4)cc2OCc2nc(C)c(C)nc2C)nc1C | 61.8 | > 1000 | 
O=C(/C=C/c1ccc(O)cc1)NCCCCNc1c2c(nc3ccccc13)CCCC2 | 29.8 | 139 | 
